Measurements reported in patent US20260207572A1, “METHODS AND COMPOSITIONS FOR TREATMENT OF SUBJECTS WITH HEPATIC IMPAIRMENTS” (ELEVAR THERAPEUTICS, INC., priority 2022, published 2026).
Where two headings read alike, the source gives them in different places.

Experiments:
[1] = Phase 1 study: unbound plasma concentration and fraction unbound (protein binding); type: in vivo, human; details: human, plasma, po, 200 mg, 200 mg single oral dose
plasma protein [2] = experiment: as above; type: in vivo, human; details: 4 h, 200 mg single oral dose; for fraction unbound at 4 h: human, plasma, po, 200 mg, read-out: Fraction Unbound, Arithmetic Mean
CYP3A4 = CYP3A4 (Homo sapiens, UniProt P08684); experiment: In vitro CYP phenotyping and metabolism study, recombinant CYP3A4; type: in vitro ADME
Sequence of CYP3A4 (P08684 whole entry): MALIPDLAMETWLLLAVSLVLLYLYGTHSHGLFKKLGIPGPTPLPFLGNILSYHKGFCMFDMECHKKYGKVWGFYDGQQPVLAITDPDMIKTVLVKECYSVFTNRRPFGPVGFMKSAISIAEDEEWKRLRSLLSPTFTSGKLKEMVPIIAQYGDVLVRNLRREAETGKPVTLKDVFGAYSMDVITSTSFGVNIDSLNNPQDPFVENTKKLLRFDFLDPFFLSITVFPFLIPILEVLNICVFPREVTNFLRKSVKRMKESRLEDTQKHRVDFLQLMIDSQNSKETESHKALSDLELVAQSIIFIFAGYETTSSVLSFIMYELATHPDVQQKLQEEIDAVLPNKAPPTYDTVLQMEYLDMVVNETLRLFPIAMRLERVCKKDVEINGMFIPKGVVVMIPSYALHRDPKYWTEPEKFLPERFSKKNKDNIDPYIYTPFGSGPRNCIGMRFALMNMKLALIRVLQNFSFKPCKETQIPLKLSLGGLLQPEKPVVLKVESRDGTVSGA
Procedure: (§1) Recently, an in vitro cytochrome (CYP) phenotyping and metabolism study was performed.

plasma protein [3] = details: cited from earlier work
CYP2C9 = CYP2C9 (Homo sapiens, UniProt P11712); experiment: In vitro CYP phenotyping and metabolism study, recombinant CYP2C9; type: in vitro ADME
Sequence of CYP2C9 (P11712 whole entry): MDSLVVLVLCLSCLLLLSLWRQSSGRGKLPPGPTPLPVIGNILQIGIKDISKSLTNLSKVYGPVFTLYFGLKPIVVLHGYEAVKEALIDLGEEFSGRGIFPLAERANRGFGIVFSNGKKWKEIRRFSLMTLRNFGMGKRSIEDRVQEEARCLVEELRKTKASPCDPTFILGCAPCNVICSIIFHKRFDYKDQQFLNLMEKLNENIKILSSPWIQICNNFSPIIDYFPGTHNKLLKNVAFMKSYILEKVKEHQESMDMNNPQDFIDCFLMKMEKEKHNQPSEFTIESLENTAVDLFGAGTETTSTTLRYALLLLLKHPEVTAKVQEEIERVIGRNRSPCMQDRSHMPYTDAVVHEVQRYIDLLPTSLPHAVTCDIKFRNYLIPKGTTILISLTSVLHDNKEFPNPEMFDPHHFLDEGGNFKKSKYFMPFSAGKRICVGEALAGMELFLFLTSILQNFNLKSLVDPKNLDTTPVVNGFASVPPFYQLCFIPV
Procedure: as §1

CYP2B6 = molecular target: T1, CYP2B6 (Homo sapiens, UniProt P20813); experiment: In vitro CYP phenotyping and metabolism study, recombinant CYP2B6; type: in vitro ADME
T1 sequence (P20813 1-491): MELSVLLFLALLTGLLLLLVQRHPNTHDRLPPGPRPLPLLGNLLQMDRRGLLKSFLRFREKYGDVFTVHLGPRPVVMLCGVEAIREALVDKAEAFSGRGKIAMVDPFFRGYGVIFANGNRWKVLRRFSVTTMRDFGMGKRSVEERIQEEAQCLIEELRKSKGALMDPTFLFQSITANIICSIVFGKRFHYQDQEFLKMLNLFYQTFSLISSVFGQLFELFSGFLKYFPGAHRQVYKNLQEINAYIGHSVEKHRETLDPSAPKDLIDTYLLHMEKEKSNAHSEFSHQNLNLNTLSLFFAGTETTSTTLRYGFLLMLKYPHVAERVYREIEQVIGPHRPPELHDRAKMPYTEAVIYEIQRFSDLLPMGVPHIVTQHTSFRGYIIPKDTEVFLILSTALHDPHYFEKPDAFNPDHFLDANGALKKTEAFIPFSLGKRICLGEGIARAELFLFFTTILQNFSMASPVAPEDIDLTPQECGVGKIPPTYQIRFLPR
Procedure: as §1

[4] = Mild Hepatic Impairment, read-out: Fraction Unbound, Geometric Mean
[5] = Mild Hepatic Impairment, read-out: Fraction Unbound, Median
[6] = Mild Hepatic Impairment, read-out: Unbound Concentration, Arithmetic Mean
[7] = Mild Hepatic Impairment, read-out: Unbound Concentration, Geometric Mean
[8] = Mild Hepatic Impairment, read-out: Unbound Concentration, Median
[9] = Moderate Hepatic Impairment, read-out: Fraction Unbound, Geometric Mean
[10] = Moderate Hepatic Impairment, read-out: Fraction Unbound, Median
[11] = Moderate Hepatic Impairment, read-out: Unbound Concentration, Arithmetic Mean
[12] = Moderate Hepatic Impairment, read-out: Unbound Concentration, Geometric Mean
[13] = Moderate Hepatic Impairment, read-out: Unbound Concentration, Median
[14] = Normal Hepatic Function, read-out: Fraction Unbound, Geometric Mean
[15] = Normal Hepatic Function, read-out: Fraction Unbound, Median
[16] = Normal Hepatic Function, read-out: Unbound Concentration, Arithmetic Mean
[17] = Normal Hepatic Function, read-out: Unbound Concentration, Geometric Mean
[18] = Normal Hepatic Function, read-out: Unbound Concentration, Median

`N#CC1(c2ccc(NC(=O)c3cccnc3NCc3ccncc3)cc2)CCCC1` [Rivoceranib, N-[4-(1-cyanocyclopentyl)phenyl]-2-{[(pyridin-4-yl)methyl]amino} pyridine-3-carboxamide] gave a fraction unbound at 4 h [1, 4] of 0.0232, a fraction unbound at 4 h [1, 5] of 0.0232 and a concentration at 4 h [1, 6] of 3.78 ng/mL. The concentration at 4 h [1, 7] was 2.59 ng/mL, the concentration at 4 h [1, 8] was 2.37 ng/mL and the fraction unbound at 24 h ([1]; Mild Hepatic Impairment, read-out: Fraction Unbound, Arithmetic Mean) was 0.0201. For the same compound, the fraction unbound at 24 h [1, 4] was 0.0191, the fraction unbound at 24 h [1, 5] was 0.0174 and the concentration at 24 h [1, 6] was 0.63 ng/mL. It also gave a concentration at 24 h [1, 7] of 0.55 ng/mL, a concentration at 24 h [1, 8] of 0.65 ng/mL and a fraction unbound at 4 h [1, 9] of 0.0373. It also gave a fraction unbound at 4 h [1, 10] of 0.0419, a concentration at 4 h [1, 11] of 4.73 ng/mL and a concentration at 4 h [1, 12] of 4.52 ng/mL. The concentration at 4 h [1, 13] was 4.15 ng/mL, the fraction unbound at 24 h ([1]; Moderate Hepatic Impairment, read-out: Fraction Unbound, Arithmetic Mean) was 0.022 and the fraction unbound at 24 h [1, 9] was 0.021. The fraction unbound at 24 h [1, 10] was 0.021, the concentration at 24 h [1, 11] was 1.07 ng/mL and the concentration at 24 h [1, 12] was 0.82 ng/mL. For the same compound, the concentration at 24 h [1, 13] was 0.82 ng/mL, the fraction unbound at 4 h [1, 14] was 0.0243 and the fraction unbound at 4 h [1, 15] was 0.0212. It also gave a concentration at 4 h [1, 16] of 4.44 ng/mL, a concentration at 4 h [1, 17] of 3.62 ng/mL and a concentration at 4 h [1, 18] of 3.76 ng/mL. It also gave a fraction unbound at 24 h ([1]; Normal Hepatic Function, read-out: Fraction Unbound, Arithmetic Mean) of 0.0172, a fraction unbound at 24 h [1, 14] of 0.0168 and a fraction unbound at 24 h [1, 15] of 0.0155. It also gave a concentration at 24 h [1, 16] of 0.73 ng/mL, a concentration at 24 h [1, 17] of 0.68 ng/mL and a concentration at 24 h [1, 18] of 0.69 ng/mL. The “Fraction Unbound, Arithmetic Mean” value (plasma protein [2]; Mild Hepatic Impairment) was 2.39%, the fraction unbound at 4 h (plasma protein [2]; Mild Hepatic Impairment) was 0.0239 ± 0.00639 and the fraction unbound at 4 h (plasma protein [2]; Moderate Hepatic Impairment) was 0.0425 ± 0.022. For the same compound, the fraction unbound at 4 h (plasma protein [2]; Normal Hepatic Function) was 0.0265 ± 0.0119, the “rivoceranib consumed at 60 minute incubation” value (“rivoceranib consumed” for short) (CYP3A4; CYP3A4) was “more than 60%” and the “% Remaining at 60 minute incubation” value (CYP3A4; Recombinant CYP3A4, 5 μM) was 37.6%. For the same compound, the CLINT (CYP3A4; Recombinant CYP3A4, 5 μM) was 0.704 μL/minunte/mg, the half-life at 5 µM (CYP3A4; human, Recombinant CYP3A4, 5 μM, read-out: t½) was 39.4 min and the plasma protein binding (plasma protein [3]) was 97%. The “rivoceranib consumed” value (CYP2C9; CYP2C9) was “less than 10%”, the “% Remaining at 60 minute incubation” value (CYP2C9; Recombinant CYP2C9, 5 μM) was 90.3% and the CLINT (CYP2C9; Recombinant CYP2C9, 5 μM) was 0.119 μL/minunte/mg. For the same compound, the half-life at 5 µM (CYP2C9; human, Recombinant CYP2C9, 5 μM, read-out: t½) was 234 min, the “rivoceranib consumed” value (CYP2B6; CYP2B6) was “less than 10%” and the “% Remaining at 60 minute incubation” value (CYP2B6; Recombinant CYP2B6, 5 μM) was 96.3%. For the same compound, the CLINT (CYP2B6; Recombinant CYP2B6, 5 μM) was 0.020 μL/minunte/mg and the half-life at 5 µM (CYP2B6; human, Recombinant CYP2B6, 5 μM, read-out: t½) was 344 min.
